Experimental data taken from patent US20230102554A1 (GB002, INC., priority 2019, published 2023).

Columns and labels:
[1] = target: T1, Human PDGFRα, cytoplasmic domain (GST-PDGFRα) (Homo sapiens, UniProt P16234); test: Human PDGFRα biochemical inhibition assay (off-chip Mobility Shift Assay)
T1 construct: made in house

[2] = target: T2, Human PDGFRβ, cytoplasmic domain (GST-PDGFRβ) (Homo sapiens, UniProt P09619); test: Human PDGFRβ biochemical inhibition assay (off-chip Mobility Shift Assay)
T2 construct: made in house
T2 sequence (P09619 with tags, fused parts or gaps): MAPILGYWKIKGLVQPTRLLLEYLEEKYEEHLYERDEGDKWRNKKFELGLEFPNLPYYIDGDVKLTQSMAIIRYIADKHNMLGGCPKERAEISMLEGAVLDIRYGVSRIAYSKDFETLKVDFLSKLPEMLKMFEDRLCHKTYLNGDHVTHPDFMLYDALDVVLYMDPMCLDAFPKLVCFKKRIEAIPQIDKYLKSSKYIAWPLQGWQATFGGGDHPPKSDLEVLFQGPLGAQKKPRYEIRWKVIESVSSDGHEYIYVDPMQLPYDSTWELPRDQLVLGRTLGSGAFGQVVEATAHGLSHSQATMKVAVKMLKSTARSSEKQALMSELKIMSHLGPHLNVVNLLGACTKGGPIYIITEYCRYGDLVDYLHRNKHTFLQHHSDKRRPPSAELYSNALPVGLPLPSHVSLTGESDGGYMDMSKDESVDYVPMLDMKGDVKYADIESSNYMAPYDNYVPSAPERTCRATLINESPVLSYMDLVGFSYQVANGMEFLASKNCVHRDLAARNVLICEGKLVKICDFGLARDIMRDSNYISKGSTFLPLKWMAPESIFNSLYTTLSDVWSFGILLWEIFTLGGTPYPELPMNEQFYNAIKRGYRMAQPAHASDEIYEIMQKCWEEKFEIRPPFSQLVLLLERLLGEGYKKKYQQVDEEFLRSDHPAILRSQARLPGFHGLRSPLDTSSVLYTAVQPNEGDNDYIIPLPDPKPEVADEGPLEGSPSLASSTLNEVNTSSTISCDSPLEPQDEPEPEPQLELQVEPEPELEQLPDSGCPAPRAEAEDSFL
In short: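 GST-tagged cytoplasmic domain (aa 557-1106) from baculovirus was incubated 1 h at room temperature with compound, CSKtide, ATP at Km and Mg²⁺ in HEPES buffer, pH 7.5. Phosphorylated and unphosphorylated peptide were separated by off-chip mobility shift, and the product ratio P/(P+S) gave percent inhibition.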

T1 sequence (P16234 550-1089 T674I): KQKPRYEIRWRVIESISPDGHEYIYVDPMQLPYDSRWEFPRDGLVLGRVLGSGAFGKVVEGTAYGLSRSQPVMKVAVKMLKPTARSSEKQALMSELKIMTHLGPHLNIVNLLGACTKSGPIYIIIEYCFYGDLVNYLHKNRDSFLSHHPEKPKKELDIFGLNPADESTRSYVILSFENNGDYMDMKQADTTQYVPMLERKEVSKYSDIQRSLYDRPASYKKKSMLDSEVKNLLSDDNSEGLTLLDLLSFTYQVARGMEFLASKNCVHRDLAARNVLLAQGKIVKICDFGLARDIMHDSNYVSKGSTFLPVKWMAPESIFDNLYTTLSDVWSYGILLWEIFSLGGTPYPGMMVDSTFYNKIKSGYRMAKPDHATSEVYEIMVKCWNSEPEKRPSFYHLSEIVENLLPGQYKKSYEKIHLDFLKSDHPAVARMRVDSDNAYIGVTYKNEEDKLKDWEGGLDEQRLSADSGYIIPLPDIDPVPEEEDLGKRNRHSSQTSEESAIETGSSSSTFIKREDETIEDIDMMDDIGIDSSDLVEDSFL

| Compound | IC50 [1] | IC50 [2] |
| --- | --- | --- |
| Cc1cc(C(=O)Nc2cccc([C@H](C)Nc3cnc4cnn(C)c4n3)c2)cnc1N1CCN(C)CC1 [Compound 195, (S)-5-methyl-N-(3-(1-((1-methyl-1H-pyrazolo[3,4-b]pyrazin-6-yl)amino)ethyl)phenyl)-6-(4-methylpiperazin-1-yl)nicotinamide] | < 300 nM | < 300 nM |
| Cc1cncc(C(=O)Nc2cccc([C@H](C)Nc3cnc4cc(F)c(F)cc4n3)c2)c1 [Compound 36, (S)-N-(3-(1-((6,7-difluoroquinoxalin-2-yl)amino)ethyl)phenyl)-5-methylnicotinamide] | < 300 nM | < 300 nM |
| Cc1ccc(C(=O)Nc2cccc([C@H](C)Nc3cnc4cnn(C)c4n3)c2)cc1C [Compound 234, (S)-3,4-dimethyl-N-(3-(1-((1-methyl-1H-pyrazolo[3,4-b]pyrazin-6-yl)amino)ethyl)phenyl)benzamide] | < 300 nM | < 300 nM |
| C[C@H](Nc1cnc2cnn(C)c2n1)c1cccc(NC(=O)c2cc(C(F)(F)F)nn2C)c1 [Compound 160, (S)-1-methyl-N-(3-(1-((1-methyl-1H-pyrazolo[3,4-b]pyrazin-6-yl)amino)ethyl)phenyl)-3-(trifluoromethyl)-1H-pyrazole-5-carboxamide] | < 300 nM | < 300 nM |
| CSc1ccc(C(=O)Nc2cccc([C@H](C)Nc3cnc4cnn(C)c4n3)c2)cc1SC [Compound 269, (S)-N-(3-(1-((1-methyl-1H-pyrazolo[3,4-b]pyrazin-6-yl)amino)ethyl)phenyl)-3,4-bis(methylthio)benzamide] | < 300 nM | < 300 nM |
| CCc1ncc(C(=O)Nc2cccc([C@H](C)Nc3cnc4cnn(C)c4n3)c2)cc1C [Compound 233, (S)-6-ethyl-5-methyl-N-(3-(1-((1-methyl-1H-pyrazolo[3,4-b]pyrazin-6-yl)amino)ethyl)phenyl)nicotinamide] | < 300 nM | < 300 nM |
| Cc1cc(C(=O)Nc2cccc([C@H](C)Nc3cnc4cnn(C)c4n3)c2)cnc1Cl [Compound 200, (S)-6-chloro-5-methyl-N-(3-(1-((1-methyl-1H-pyrazolo[3,4-b]pyrazin-6-yl)amino)ethyl)phenyl)nicotinamide] | < 300 nM | < 300 nM |
| C=Cc1ncc(C(=O)Nc2cccc([C@H](C)Nc3cnc4cnn(C)c4n3)c2)cc1C [Compound 245, (S)-5-methyl-N-(3-(1-((1-methyl-1H-pyrazolo[3,4-b]pyrazin-6-yl)amino)ethyl)phenyl)-6-vinylnicotinamide] | < 300 nM | < 300 nM |
| Cc1cncc(C(=O)Nc2cccc([C@H](C)Nc3cnn4ccccc34)c2)c1 [Compound 20, (S)-5-methyl-N-(3-(1-(pyrazolo[1,5-a]pyridin-3-ylamino)ethyl)phenyl)nicotinamide] | ≥ 1000 nM | ≥ 1000 nM |
| CCn1nc(C(C)C)cc1C(=O)Nc1cccc([C@H](C)Nc2cnc3cnn(C)c3n2)c1 [Compound 167, (S)-1-ethyl-3-isopropyl-N-(3-(1-((1-methyl-1H-pyrazolo[3,4-b]pyrazin-6-yl)amino)ethyl)phenyl)-1H-pyrazole-5-carboxamide] | < 300 nM | < 300 nM |
| Cc1cc(C(=O)Nc2cccc([C@H](C)Nc3cnc4cnn(C)c4n3)c2)cnc1N1CCSCC1 [Compound 260, (S)-5-methyl-N-(3-(1-((1-methyl-1H-pyrazolo[3,4-b]pyrazin-6-yl)amino)ethyl)phenyl)-6-thiomorpholinonicotinamide] | < 300 nM | < 300 nM |
| CCc1cncc(C(=O)Nc2cccc([C@H](C)Nc3cnc4cn[nH]c4n3)c2)c1 [Compound 91, (S)-N-(3-(1-((1H-pyrazolo[3,4-b]pyrazin-6-yl)amino)ethyl)phenyl)-5-ethylnicotinamide] | < 300 nM | < 300 nM |
| COc1cc(C(=O)Nc2cccc([C@H](C)Nc3cnc4cnn(C)c4n3)c2)cnc1Cl [Compound 249, (S)-6-chloro-5-methoxy-N-(3-(1-((1-methyl-1H-pyrazolo[3,4-b]pyrazin-6-yl)amino)ethyl)phenyl)nicotinamide] | < 300 nM | < 300 nM |

Second part, the compound after the results:

| IC50 [1] | IC50 [2] | Compound |
| --- | --- | --- |
| < 300 nM | < 300 nM | CCn1cc2ncc(N[C@@H](C)c3cc(NC(=O)c4cc(C)c(CN5CC[C@@H](O)C5)c(F)c4)ccc3C)nc2n1 [Compound 527, N-(3-((S)-1-((2-ethyl-2H-pvrazolo[3,4-b]pyrazin-6-yl)amino)ethyl)-4-methylphenyl)-3-fluoro-4-(((R)-3-hydroxypyrrolidin-1-yl)methyl)-5-methylbenzamide] |
| < 300 nM | < 300 nM | Cc1n[nH]c2ncc(N[C@@H](C)c3cccc(NC(=O)c4cnc(C5CC5)s4)c3)nc12 [Compound 541, (S)-2-cyclopropyl-N-(3-(1-((3-methyl-1H-pyrazolo[3,4-b]pyrazin-5-yl)amino)ethyl)phenyl)thiazole-5-carboxamide] |
| < 300 nM | < 300 nM | CCc1cc2ncc(N[C@@H](C)c3cc(NC(=O)c4ccc(C(F)(F)F)nc4)ccc3F)nc2s1 [Compound 620, (S)-N-(3-(1-((6-ethylthieno[2,3-b]pyrazin-3-yl)amino)ethyl)-4-fluorophenyl)-6-(trifluoromethyl)nicotinamide] |
| < 300 nM | < 300 nM | Cc1cncc(C(=O)Nc2cccc([C@H](C)Nc3cnc4ccsc4c3)c2)c1 [Compound 606, (S)-5-methyl-N-(3-(1-(thieno[3,2-b]pyridin-6-ylamino)ethyl)phenyl) nicotinamide] |
| < 300 nM | < 300 nM | C[C@H](Nc1cnc2[nH]ccc2n1)c1cc(NC(=O)c2cnn(C3CCC3)c2)ccc1F [Compound 597, (S)-N-(3-(1-((5H-pyrrolo[2,3-b]pyrazin-2-yl)amino)ethyl)-4-fluorophenyl)-1-cyclobutyl-1H-pyrazole-4-carboxamide] |
| < 300 nM | < 300 nM | Cc1cncc(C(=O)Nc2cccc([C@H](C)Nc3cnc4[nH]c(-c5cnn(C)c5)nc4n3)c2)c1 [Compound 603, (S)-5-methyl-N-(3-(1-((2-(1-methyl-1H-pyrazol-4-yl)-1H-imidazo[4,5-b]pyrazin-5-yl)amino)ethyl)phenyl) nicotinamide] |
| < 300 nM | < 300 nM | CCn1cc2ncc(N[C@@H](C)c3cccc(NC(=O)c4ccc(CN5CC[C@H](F)C5)c(C)c4)c3)nc2n1 [Compound 493, N-(3-((S)-1-((2-ethyl-2H-pyrazolo[3,4-b]pyrazin-6-yl)amino)ethyl)phenyl)-4-(((S)-3-fluoropyrrolidin-1-yl)methyl)-3-methylbenzamide] |
| < 300 nM | < 300 nM | CCn1cc(C(=O)Nc2ccc(F)c([C@H](C)Nc3cnc4cn(CC)nc4n3)c2)cn1 [Compound 310, (S)-1-ethyl-N-(3-(1-((2-ethyl-2H-pyrazolo[3,4-b]pyrazin-6-yl)amino)ethyl)-4-fluorophenyl)-1H-pyrazole-4-carboxamide] |
| < 300 nM | < 300 nM | CCn1cc2ncc(N[C@@H](C)c3cccc(NC(=O)c4ccc(CN5CCC6(COC6)C5)c(C)c4)c3)nc2n1 [Compound 460, (S)-4-((2-oxa-6-azaspiro[3.4]octan-6-yl)methyl)-N-(3-(1-((2-ethyl-2H-pyrazolo[3,4-b]pyrazin-6-yl)amino)ethyl)phenyl)-3-methylbenzamide] |
| < 300 nM | 300 to 1000 nM | CCn1cc2ncc(N[C@@H](C)c3cc(NC(=O)c4cnc(NC)c(C)c4)ccc3F)nc2n1 [Compound 379, (S)-N-(3-(1-((2-ethyl-2H-pyrazolo[3,4-b]pyrazin-6-yl)amino)ethyl)-4-fluorophenyl)-5-methyl-6-(methylamino) nicotinamide] |
| < 300 nM | < 300 nM | Cc1cc(C(=O)Nc2cccc([C@H](C)Nc3cnc4[nH]nc(C)c4n3)c2)cnc1C(F)(F)F [Compound 538, (S)-5-methyl-N-(3-(1-((3-methyl-1H-pyrazolo[3,4-b]pyrazin-5-yl)amino)ethyl)phenyl)-6-(trifluoromethyl) nicotinamide] |
| < 300 nM | < 300 nM | CCn1cc2ncc(N[C@@H](C)c3cccc(NC(=O)c4cnc(N5CCN(C)CC5)c(Cl)c4)c3)nc2n1 [Compound 421, (S)-5-chloro-N-(3-(1-((2-ethyl-2H-pyrazolo[3,4-b]pyrazin-6-yl)amino)ethyl)phenyl)-6-(4-methylpiperazin-1-yl) nicotinamide] |
| < 300 nM | < 300 nM | CCn1cc2ncc(N[C@@H](C)c3cccc(NC(=O)c4ccc(F)c(Cl)c4)c3)nc2n1 [Compound 343, (S)-3-chloro-N-(3-(1-((2-ethyl-2H-pyrazolo[3,4-b]pyrazin-6-yl)amino)ethyl)phenyl)-4-fluorobenzamide] |
| < 300 nM | ≥ 1000 nM | CCn1cc2ncc(N[C@@H](C)c3cccc(NC(=O)Nc4ccc(N(C)C)nc4)c3)nc2n1 [Compound 739, (S)-1-(6-(dimethylamino)pyridin-3-yl)-3-(3-(1-((2-ethyl-2H-pyrazolo[3,4-b]pyrazin-6-yl)amino)ethyl)phenyl)urea] |
| < 300 nM | < 300 nM | C[C@H](Nc1cnc2cnn(C)c2n1)c1cccc(NC(=O)Nc2ccccc2)c1 [Compound 729, (S)-1-(3-(1-((1-methyl-1H-pyrazolo[3,4]pyrazin-6-yl)amino)ethyl)phenyl)-3-phenylurea] |
| < 300 nM | < 300 nM | CCn1cc2ncc(N[C@@H](C)c3cccc(NC(=O)c4cnc(C(F)F)c(C)c4)c3)nc2n1 [Compound 353] |
| < 300 nM | < 300 nM | CCn1cc2ncc(N[C@@H](C)c3cc(NC(=O)c4cnc(N5CCCC5)c(C)c4)ccc3F)nc2n1 [Compound 336, (S)-N-(3-(1-((2-ethyl-2H-pyrazolo[3,4-b]pyrazin-6-yl)amino)ethyl)-4-fluorophenyl)-5-methyl-6-(pyrrolidin-1-yl) nicotinamide] |
